Reference: article PMC7071076, “Antibacterial Activity and Pharmacokinetic Profile of a Promising Antibacterial Agent: 22-(2-Amino-phenylsulfanyl)-22-Deoxypleuromutilin” (Molecules, 2020)
Read-outs that look alike come from different tables or passages of the source.

Assay: Pharmacokinetic study in mice
Assay type: in vivo
Conditions: female, ICR, mouse, plasma, 10 mg/kg
Method: Pharmacokinetic parameters of amphenmulin were measured according to previous reports with some modifications. Each group consisted of eight female SPF-ICR mice. Amphenmulin (1 mg/mL) was administered intravenously, intraperitoneally, and orally at a dose of 10 mg/kg, respectively. Formulation of amphenmulin was a filtered solution in 5% DMSO, 5% Tween-80, and 90% normal saline. Serial samples (each 0.2 mL) were collected from the ocular venous plexus and placed in a plastic centrifuge tube. The blood samples were placed at room temperature for 20 min and transferred to a 4 °C refrigerator for 12 h to promote blood coagulation. Then samples were centrifuged at 2000 r/min for 10 min to get serum. Serum samples were frozen at −20°C. 100 µL of samples was accurately absorbed and mixed with 100 µL of acetonitrile in a 1.5 mL centrifuge tube. The sample was mixed vigorously and centrifuged at 12,000 rpm for 10 min. The supernatant was transferred, filtered through a 0.22 μm cellulose membrane filter and used for LC-MS/MS analysis. Equipment and analysis conditions were shown in supplemental data. The pharmacokinetic parameters of amphenmulin were determined from the mean plasma concentration with noncompartmental analysis in WinNonlin 5.2 software (Pharsight, Mountain View, CA, USA). Data were shown as mean ± standard deviation (SD).

[1] = intraperitoneal, mice, intraperitoneal 10 mg/kg, n = 8, read-out: plasma concentration, mean ± S.D
[2] = iv, intravenous 10 mg/kg, mice 1-8 in order, read-out: plasma concentration, individual mice
[3] = iv, mice, intravenous 10 mg/kg, n = 8, read-out: plasma concentration, mean ± S.D
[4] = po, mice, oral 10 mg/kg, n = 8, read-out: plasma concentration, mean ± S.D

In the case of C=C[C@]1(C)C[C@@H](OC(=O)CSc2ccccc2N)[C@]2(C)[C@H](C)CC[C@]3(CCC(=O)[C@H]32)[C@@H](C)[C@@H]1O [Amphenmulin, 22-(2-amino-phenylsulfanyl)-22-deoxypleuromutilin], the concentration at 0.083 h [1] is reported as 850 ± 320 ng/mL, the concentration at 0.25 h [1] is reported as 1220 ± 460 ng/mL and the concentration at 0.5 h [1] is reported as 980 ± 420 ng/mL. The concentration at 0.75 h [1] was 740 ± 330 ng/mL, the concentration at 1 h [1] was 580 ± 240 ng/mL and the concentration at 2 h [1] was 340 ± 160 ng/mL. The concentration at 4 h [1] was 190 ± 120 ng/mL, the concentration at 6 h [1] was 120 ± 90 ng/mL and the concentration at 8 h [1] was 70 ± 40 ng/mL. It also gave a concentration at 12 h [1] of 30 ± 10 ng/mL, an AUC(0-inf) (ip, mice, intraperitoneal) of 2520 ± 810 ng·h/mL and a Cmax (ip, mice, intraperitoneal) of 1340 ± 420 ng/mL. The MRT (ip, mice, intraperitoneal) was 3.28 ± 0.42 h, the Tmax (ip, mice, intraperitoneal) was 0.32 ± 0.21 h and the bioavailability (ip, mice, intraperitoneal) was 20.7%. For the same compound, the half-life (ip, mice, intraperitoneal) was 2.64 ± 0.72 h, the Vd/F (ip, mice, intraperitoneal, read-out: Vz/F) was 15.9 ± 7.41 L/kg and the concentration at 0.083 h [2] was 3060 ng/mL. It also gave a concentration at 0.25 h [2] of 2850 ng/mL, a concentration at 0.5 h [2] of 2650 ng/mL and a concentration at 0.75 h [2] of 2350 ng/mL. For the same compound, the concentration at 4 h [2] was 850 ng/mL, the concentration at 6 h [2] was 460 ng/mL and the concentration at 0.083 h [3] was 3940 ± 730 ng/mL. It also gave a concentration at 0.25 h [3] of 3770 ± 640 ng/mL, a concentration at 0.5 h [3] of 3530 ± 530 ng/mL and a concentration at 0.75 h [3] of 3310 ± 740 ng/mL. For the same compound, the concentration at 1 h [3] was 3190 ± 700 ng/mL, the concentration at 2 h [3] was 2300 ± 650 ng/mL and the concentration at 4 h [3] was 1010 ± 160 ng/mL. It also gave a concentration at 6 h [3] of 420 ± 90 ng/mL, a concentration at 8 h [3] of 210 ± 80 ng/mL and a concentration at 12 h [3] of 50 ± 10 ng/mL. For the same compound, the concentration at 0.25 h [4] was 90 ± 50 ng/mL, the concentration at 0.5 h [4] was 310 ± 110 ng/mL and the concentration at 1 h [4] was 490 ± 160 ng/mL. It also gave a concentration at 2 h [4] of 360 ± 210 ng/mL and a concentration at 3 h (po, mice, oral 10 mg/kg, 3 h, n = 8, read-out: plasma concentration, mean ± S.D) of 220 ± 150 ng/mL.
